Experimental data as given in patent US11352330B2, “Phenoxymethyl derivatives” (Hoffmann-La Roche Inc., priority 2015, dated 2022).

These molecules were tested against human ATX (Homo sapiens (Human), UniProt Q13822) (assay: Human ATX enzyme inhibition assay (fluorescence quenching, MR121 substrate)). Conditions: human His-tagged ATX 30 nM, MR121 substrate 1 μM, 30° C.
Type: biochemical
Method in brief: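 Human His-tagged ATX (30 nM final) preincubated 15 min at 30 °C with serially diluted compounds in Tris buffer pH 8.0 with Ca2+, Mg2+ and 0.01% Triton X-100. MR121/tryptophan-labelled substrate analogue (1 μM final) then added for 15 min at 30 °C; cleavage read by fluorescence dequenching.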

Compound	IC50 [nM]
Cn1c(COc2cc(Cl)c(C#N)cc2-c2cc(OC3CC3)ccc2F)n[nH]c1=O [Example B95]	6
Cc1nc2cc(OCc3n[nH]c(=O)n3C)c(C3CC3)cc2s1 [Example A30]	9
Cn1c(COc2ccc(-c3ncco3)cc2C(C)(C)C)n[nH]c1=O [Example A7]	13
Cc1cc(OCc2n[nH]c(=O)n2C)c(-c2cc(CN3CCOC3=O)ccc2F)cc1Cl [Example B82]	8
COC(=O)c1cccc(-c2cc(Cl)c(C)cc2OCc2n[nH]c(=O)n2C)c1 [Example B42, Methyl 3-[5-chloro-4-methyl-2-[(4-methyl-5-oxo-1H-1,2,4-triazol-3-yl)methoxy]phenyl]benzoate]	21
CCOc1ccc(F)c(-c2cc(Cl)c(C)cc2OCc2n[nH]c(=O)n2C)c1 [Example B55]	9
COCC(=O)NCc1ccc(F)c(-c2cc(Cl)c(C)cc2OCc2n[nH]c(=O)n2C)c1 [Example B83]	8
Cc1cc(OCc2n[nH]c(=O)n2C)c(-c2cccc(C#N)c2)cc1Cl [Example B5]	3
Cc1cc(OCc2n[nH]c(=O)n2C)c(-c2cccc(C(=O)O)c2)cc1Cl [Example B43, 3-[5-Chloro-4-methyl-2-[(4-methyl-5-oxo-1H-1,2,4-triazol-3-yl)methoxy]phenyl]benzoic acid]	1100
Cc1cc(OCc2n[nH]c(=O)n2C)c(-c2cc(OCC(=O)N(C)C)ccc2F)cc1Cl [Example B75]	10
Cc1cc(OCc2n[nH]c(=O)n2C)c(-c2cc(C(=O)NC3CC3)ccc2F)cc1Cl [Example B15]	11
CN(C)C(=O)c1cccc(-c2cc(C#N)c(Cl)cc2OCc2n[nH]c(=O)n2C)c1 [Example B39]	93
Cc1cc(OCc2n[nH]c(=O)n2C)c(-c2cnc[nH]2)cc1Cl [Example B28, 3-[[4-Chloro-2-(1H-imidazol-5-yl)-5-methylphenoxy]methyl]-4-methyl-1H-1,2,4-triazol-5-one]	5940
Cc1cc(OCc2n[nH]c(=O)n2C)c(-c2cc(CN3CC(=O)N(C)CC3=O)ccc2F)cc1Cl [Example B76]	11
Cc1cc(OCc2n[nH]c(=O)n2C)c(-c2ccccc2S(C)(=O)=O)cc1Cl [Example B7]	4200
Cn1c(COc2cc(Cl)c(C#N)cc2-c2cccc(-c3cc[nH]n3)c2)n[nH]c1=O [Example B34, 2-Chloro-4-[(4-methyl-5-oxo-1H-1,2,4-triazol-3-yl)methoxy]-5-[3-(H-pyrazol-3-yl)phenyl]benzonitrile]	51
Cc1cc(OCc2n[nH]c(=O)n2C)c(-c2cccc(C(=O)N(C)C)c2)cc1Cl [Example B12]	22

Second part, the molecule after the results:

IC50 [nM]	Compound
8	Cc1cc(OCc2n[nH]c3ncccc23)c(-c2cc(C(=O)N3CCN(C)C(=O)C3)ccc2F)cc1Cl [Example D39]
41300	CC(=O)N1CCc2[nH]nc(COc3cc(C)c(Cl)cc3C(C)(C)C)c2C1 [Example E2, 1-(3-((2-tert-Butyl-4-chloro-5-methylphenoxy)methyl)-6,7-dihydro-1H-pyrazolo[4,3-c]pyridin-5(4H)-yl)ethanone]
35	Cc1cc(OCc2n[nH]c3ncccc23)c(-c2cccc(C(=O)NCCO)c2)cc1Cl [Example D19]
> 82000	Cc1cc(OCc2n[nH]c3ccccc23)c(C(C)(C)C)cc1S(C)(=O)=O [Example D10]
1	Cc1cc(OCc2n[nH]c3ncccc23)c(-c2ccno2)cc1Cl [Example D5]
69	N#Cc1cc(-c2cc(OC3CC3)ccc2F)c(OCc2n[nH]c3cnccc23)cc1Cl [Example D51]
1	CC(C)(C)c1cc(Cl)c(C#N)cc1OCc1n[nH]c2cnccc12 [Example D50]
40	Cc1cc(C(C)(C)C)c(OCc2ccc(=O)[nH]n2)cc1C#N [Example C13]
7	N#Cc1cc(-c2cc(C(=O)N3CCCC3)ccc2F)c(OCc2n[nH]c3ncccc23)cc1Cl [Example D43]
9	Cc1cc(OCc2n[nH]c3nc(NCCO)ncc23)c(C(C)(C)C)cc1Cl [Example D30]
